From the supplement of paper PMC10307832 come the findings set out here.

The test system of the first assay is NCI-H1395. Description: relative viability (nuclei count vs DMSO), 5 days (fraction); higher = more cells survive. The note with it: first compound 0.2 µM. Summed up:
(§1)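 Dosing by pin tool came one day after lung cancer cell lines were seeded in 1536-well plates, using either one drug or a fixed anchor-drug dose plus five library-drug doses (not always all listed) in √10 steps. After 5 days, nuclei were counted on 4× images. Relative viability is treated-well nuclei count divided by vehicle-well nuclei count, and values are medians of duplicate plates.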
Consider `COCC1(CO)C(=O)C2CCN1CC2` (configuration not stated) [PRIMA-1MET] + N=C(N)NC(=N)NCCc1ccccc1 [Phenformin] (partner 250 µM), for which the relative viability is 0.469.

The compound `COCC1(CO)C(=O)C2CCN1CC2` (configuration not stated) [PRIMA-1MET] + Nc1nc2[nH]cc(CCc3ccc(C(=O)N[C@@H](CCC(=O)O)C(=O)O)cc3)c2c(=O)[nH]1 [Pemetrexed] (partner 0.2 µM) registered a relative viability of 0.842.

For the compound `COCC1(CO)C(=O)C2CCN1CC2` (configuration not stated) [PRIMA-1MET] + CC(=O)Nc1cccc(-n2c(=O)n(C3CC3)c(=O)c3c(Nc4ccc(I)cc4F)n(C)c(=O)c(C)c32)c1 [Trametinib] (partner 0.02 µM), the relative viability was 1.14.

`COCC1(CO)C(=O)C2CCN1CC2` (configuration not stated) [PRIMA-1MET] + Nc1ncn([C@H]2C[C@H](O)[C@@H](CO)O2)c(=O)n1 [Decitabine] (partner 2 µM) had a relative viability of 0.712.

Regarding `COCC1(CO)C(=O)C2CCN1CC2` (configuration not stated) [PRIMA-1MET] + O=C(c1cc(Cc2n[nH]c(=O)c3ccccc23)ccc1F)N1CCN(C(=O)C2CC2)CC1 [Olaparib] (partner 8 µM), the relative viability came to 0.51.

Still in this assay, the particulars now being: first compound 0.6325 µM.
`COCC1(CO)C(=O)C2CCN1CC2` (configuration not stated) [PRIMA-1MET] + N=C(N)NC(=N)NCCc1ccccc1 [Phenformin] (partner 250 µM) yielded a relative viability of 0.414.

The assay is the same for the next values; noted with them: first compound 2 µM.
Take `COCC1(CO)C(=O)C2CCN1CC2` (configuration not stated) [PRIMA-1MET] + N=C(N)NC(=N)NCCc1ccccc1 [Phenformin] (partner 250 µM): the relative viability is 0.416.

In turn, `COCC1(CO)C(=O)C2CCN1CC2` (configuration not stated) [PRIMA-1MET] + Nc1nc2[nH]cc(CCc3ccc(C(=O)N[C@@H](CCC(=O)O)C(=O)O)cc3)c2c(=O)[nH]1 [Pemetrexed] (partner 0.2 µM) registered a relative viability of 0.771.

On to `COCC1(CO)C(=O)C2CCN1CC2` (configuration not stated) [PRIMA-1MET] + CC(=O)Nc1cccc(-n2c(=O)n(C3CC3)c(=O)c3c(Nc4ccc(I)cc4F)n(C)c(=O)c(C)c32)c1 [Trametinib] (partner 0.02 µM), for which the relative viability came out at 0.979.

In turn, `COCC1(CO)C(=O)C2CCN1CC2` (configuration not stated) [PRIMA-1MET] + Nc1ncn([C@H]2C[C@H](O)[C@@H](CO)O2)c(=O)n1 [Decitabine] (partner 2 µM) gave a relative viability of 0.708.

As to `COCC1(CO)C(=O)C2CCN1CC2` (configuration not stated) [PRIMA-1MET] + O=C(c1cc(Cc2n[nH]c(=O)c3ccccc23)ccc1F)N1CCN(C(=O)C2CC2)CC1 [Olaparib] (partner 8 µM), the relative viability was 0.476.

Still in this assay, the particulars now being: first compound 6.325 µM.
`COCC1(CO)C(=O)C2CCN1CC2` (configuration not stated) [PRIMA-1MET] + N=C(N)NC(=N)NCCc1ccccc1 [Phenformin] (partner 250 µM): the relative viability stood at 0.441.

On to `COCC1(CO)C(=O)C2CCN1CC2` (configuration not stated) [PRIMA-1MET] + Nc1nc2[nH]cc(CCc3ccc(C(=O)N[C@@H](CCC(=O)O)C(=O)O)cc3)c2c(=O)[nH]1 [Pemetrexed] (partner 0.2 µM), for which the relative viability came to 0.881.

With `COCC1(CO)C(=O)C2CCN1CC2` (configuration not stated) [PRIMA-1MET] + CC(=O)Nc1cccc(-n2c(=O)n(C3CC3)c(=O)c3c(Nc4ccc(I)cc4F)n(C)c(=O)c(C)c32)c1 [Trametinib] (partner 0.02 µM), the relative viability is 1.02.

Compound `COCC1(CO)C(=O)C2CCN1CC2` (configuration not stated) [PRIMA-1MET] + Nc1ncn([C@H]2C[C@H](O)[C@@H](CO)O2)c(=O)n1 [Decitabine] (partner 2 µM) yielded a relative viability of 0.838.

`COCC1(CO)C(=O)C2CCN1CC2` (configuration not stated) [PRIMA-1MET] + O=C(c1cc(Cc2n[nH]c(=O)c3ccccc23)ccc1F)N1CCN(C(=O)C2CC2)CC1 [Olaparib] (partner 8 µM) yielded a relative viability of 0.432.

Staying with this assay, now noted: first compound 20 µM.
The compound `COCC1(CO)C(=O)C2CCN1CC2` (configuration not stated) [PRIMA-1MET] + N=C(N)NC(=N)NCCc1ccccc1 [Phenformin] (partner 250 µM) gave a relative viability of 0.395.

`COCC1(CO)C(=O)C2CCN1CC2` (configuration not stated) [PRIMA-1MET] + Nc1nc2[nH]cc(CCc3ccc(C(=O)N[C@@H](CCC(=O)O)C(=O)O)cc3)c2c(=O)[nH]1 [Pemetrexed] (partner 0.2 µM) returned a relative viability of 0.154.

With `COCC1(CO)C(=O)C2CCN1CC2` (configuration not stated) [PRIMA-1MET] + CC(=O)Nc1cccc(-n2c(=O)n(C3CC3)c(=O)c3c(Nc4ccc(I)cc4F)n(C)c(=O)c(C)c32)c1 [Trametinib] (partner 0.02 µM), the relative viability was found to be 1.05.

Consider `COCC1(CO)C(=O)C2CCN1CC2` (configuration not stated) [PRIMA-1MET] + Nc1ncn([C@H]2C[C@H](O)[C@@H](CO)O2)c(=O)n1 [Decitabine] (partner 2 µM), for which the relative viability came out at 0.67.

Compound `COCC1(CO)C(=O)C2CCN1CC2` (configuration not stated) [PRIMA-1MET] + O=C(c1cc(Cc2n[nH]c(=O)c3ccccc23)ccc1F)N1CCN(C(=O)C2CC2)CC1 [Olaparib] (partner 8 µM) showed a relative viability of 0.426.

The test system of the next assay is LOU-NH91. Described as above. The note with it: first compound 0.2 µM. The method, boiled down: as §1
`COCC1(CO)C(=O)C2CCN1CC2` (configuration not stated) [PRIMA-1MET] + N=C(N)NC(=N)NCCc1ccccc1 [Phenformin] (partner 250 µM) came in with a relative viability of 0.724.

The compound `COCC1(CO)C(=O)C2CCN1CC2` (configuration not stated) [PRIMA-1MET] + Nc1nc2[nH]cc(CCc3ccc(C(=O)N[C@@H](CCC(=O)O)C(=O)O)cc3)c2c(=O)[nH]1 [Pemetrexed] (partner 0.2 µM) had a relative viability of 0.356.

Regarding `COCC1(CO)C(=O)C2CCN1CC2` (configuration not stated) [PRIMA-1MET] + CC(=O)Nc1cccc(-n2c(=O)n(C3CC3)c(=O)c3c(Nc4ccc(I)cc4F)n(C)c(=O)c(C)c32)c1 [Trametinib] (partner 0.02 µM), the relative viability turned out to be 0.842.

In turn, `COCC1(CO)C(=O)C2CCN1CC2` (configuration not stated) [PRIMA-1MET] + Nc1ncn([C@H]2C[C@H](O)[C@@H](CO)O2)c(=O)n1 [Decitabine] (partner 2 µM) displayed a relative viability of 0.89.

Take `COCC1(CO)C(=O)C2CCN1CC2` (configuration not stated) [PRIMA-1MET] + O=C(c1cc(Cc2n[nH]c(=O)c3ccccc23)ccc1F)N1CCN(C(=O)C2CC2)CC1 [Olaparib] (partner 8 µM): the relative viability came out at 1.02.

Staying with this assay, now noted: first compound 0.6325 µM.
Regarding `COCC1(CO)C(=O)C2CCN1CC2` (configuration not stated) [PRIMA-1MET] + N=C(N)NC(=N)NCCc1ccccc1 [Phenformin] (partner 250 µM), the relative viability was 0.667.

The compound `COCC1(CO)C(=O)C2CCN1CC2` (configuration not stated) [PRIMA-1MET] + Nc1nc2[nH]cc(CCc3ccc(C(=O)N[C@@H](CCC(=O)O)C(=O)O)cc3)c2c(=O)[nH]1 [Pemetrexed] (partner 0.2 µM) had a relative viability of 0.367.

In the case of `COCC1(CO)C(=O)C2CCN1CC2` (configuration not stated) [PRIMA-1MET] + CC(=O)Nc1cccc(-n2c(=O)n(C3CC3)c(=O)c3c(Nc4ccc(I)cc4F)n(C)c(=O)c(C)c32)c1 [Trametinib] (partner 0.02 µM), the relative viability is 0.801.

Compound `COCC1(CO)C(=O)C2CCN1CC2` (configuration not stated) [PRIMA-1MET] + Nc1ncn([C@H]2C[C@H](O)[C@@H](CO)O2)c(=O)n1 [Decitabine] (partner 2 µM) came in with a relative viability of 0.794.

`COCC1(CO)C(=O)C2CCN1CC2` (configuration not stated) [PRIMA-1MET] + O=C(c1cc(Cc2n[nH]c(=O)c3ccccc23)ccc1F)N1CCN(C(=O)C2CC2)CC1 [Olaparib] (partner 8 µM) showed a relative viability of 0.911.

The assay is the same for the next values; noted with them: first compound 2 µM.
The compound `COCC1(CO)C(=O)C2CCN1CC2` (configuration not stated) [PRIMA-1MET] + N=C(N)NC(=N)NCCc1ccccc1 [Phenformin] (partner 250 µM) yielded a relative viability of 0.554.
